Key:
[1] = test system: AVM-BEC; test: ELISA of AVM-BEC supernatants; type: cell-based, human
Text: (§1) Human surgical specimens were obtained following written informed consent from patients in accordance with Declaration of Helsinki guidelines and the Institutional Review Board (HS-04B053), at Keck School of Medicine, USC. AVM-BECs were isolated from brain tissues of patients who underwent microsurgical AVM resection. Control BECs were isolated from the structurally normal […] of patients who underwent temporal lobectomy for intractable epilepsy. Endothelial cell (EC) isolation and culture were described^5,9. (Stapleton C J, Armstrong D L, Zidovetzki R, Liu C Y, Giannotta S L, Hofman F M. Thrombospondin-1 modulates the angiogenic phenotype of human cerebral arteriovenous malformation endothelial cells. Neurosurgery. 2011; 68(5):1342-1353) (Ferreira R, Santos T, Amar A, et al. Argonaute-2 promotes miR-18a entry in human brain endothelial cells. J Am Heart Assoc. 2014; 3(3):e000968) ECs were only used between passages 3-5. Experiments were performed under shear flow conditions (12 dyn/cm^2) to reproduce arterial flow^6. (Ferreira R, Santos T, Amar A, et al. MicroRNA-18a improves human cerebral arteriovenous malformation endothelial cell function. Stroke. 2014; 45(1):293-297). For hypoxic experiments, cells were cultured in a Galaxy 48R (Eppendorf) incubator at 3% O2. MicroRNAs were co-administered with Ago-2 to increase the cellular uptake of miR-18a^9 (Ferreira R, Santos T, Amar A, et al. Argonaute-2 promotes miR-18a entry in human brain endothelial cells. J Am Heart Assoc. 2014; 3(3):e000968) (FIG. 9). Methods regarding cell treatments and transfections were included in Data.
(§2) Small interfering RNA transfection was performed as previously described^5. Briefly, ECs were transfected with small interfering RNA (siRNA) against ID1 or PAI-1 (Thermo Fisher Scientific), or small interfering control (Santa Cruz Biotechnology) constructs using Lipofectamine RNAiMax (Thermo Fisher Scientific) per the manufacturer's instructions. Knockdown of ID1 or PAI-1 was confirmed by quantitative real-time polymerase chain reaction as described^6 (FIG. 19). The sequences of the forward and reverse primers for ID1 and PAI-1 were included in Table 2.
(§3) Plasmid constructs pcDNA3-ALK2^WT (Addgene #80870) and pcDNA3-ALK2^Q207D (Addgene #80871) were a gift from Aristidis Moustakas^7. (Meyer B, Schaller C, Frenkel C, Ebeling B, Schramm J. Distributions of local oxygen saturation and its response to changes of mean arterial blood pressure in the cerebral cortex adjacent to arteriovenous malformations. Stroke. 1999; 30(12):2623-2630) 10^4 AVM-BEC were seeded 24 h before transfection. The plasmid vector containing the 3′ untranslated region (3′UTR) of human BMP4, pRP [Exp]-Puro-CMV>Luciferase:{hBMP4_3′UTR}, was constructed and packaged by VectorBuilder. The vector ID is VB200205-1078zdv, which can be used to retrieve detailed information about the vector on vectorbuilder.com. Transient transfections were performed with Lipofectamine RNAiMax (Thermo Fisher Scientific) according to the manufacturer's instructions. After 4 h, medium was replaced by fresh medium containing microRNA.
(§4) MiR-18a (hsa-miR-18a-5p, 40 nM, Dharmacon) or a scramble microRNA (40 nM, Dharmacon) in nuclease-free water was added with argonaute 2 (Ago-2, 0.4 nM, Abcam) as the microRNA carrier and stabilizer^9. (Ferreira R, Santos T, Amar A, et al. Argonaute-2 promotes miR-18a entry in human brain endothelial cells. J Am Heart Assoc. 2014; 3(3):e000968). No transfection reagent was used with miR-18a or scramble microRNA treatments. Recombinant human TSP-1 (R&D Systems) stock solution was prepared in PBS and further diluted in culture medium to be used at a final concentration of 1000 ng/mL. Cells were treated during 24 h for mRNA and 48 h for protein expression studies. NEO100 (NeOnc Technologies) stock was prepared in DMSO and used immediately or stored at −20° C. […]

[2] = test system: BEC; test: ELISA of control BEC supernatants; type: cell-based, human; details: control BEC supernatants, normoxia
Text: as §1, §2, §3, §4

[3] = test system: AVM-BEC; details: previous studies (Stapleton 2011); cited from earlier work

In the case of “TSP-1: Recombinant human TSP-1 (R&D Systems), used at 1000 ng/mL”, the “levels of secreted PAI-1” value ([1]; AVM-BEC supernatants, normoxia, vs scramble microRNA) is reported as “decreased”, the “levels of secreted VEGF” value ([1]; AVM-BEC supernatants, normoxia, decrease only reached significance with miR-18a) is reported as “decreased” and the PAI-1 secretion ([1]; AVM-BEC, hypoxia 3% oxygen) is reported as “neither treatment with TSP-1 (P=0.3917), nor ID1 knock-down (P=0.1701) were able to significantly decrease the levels of PAI-1”. For the same substance, the “levels of secreted PAI-1” value [2] was “without affecting control BEC”, the “levels of secreted VEGF” value [2] was “without affecting control BEC” and the “migration rate of AVM-BEC” value [3] was “decreases their migration rate”.

From US20230212571A1, “COMPOSITIONS AND METHODS FOR DELIVERING POLYNUCLEOTIDES” (NeOnc Technologies, Inc., priority 2020, published 2023)
